Measured values published in ChEMBL document CHEMBL5053556, “Design, Synthesis, and Biological Evaluation of a Novel Series of Teriflunomide Derivatives as Potent Human Dihydroorotate Dehydrogenase Inhibitors for Malignancy Treatment” (J Med Chem, 2021).

Assays:
[1] = target: T1, Dihydroorotate dehydrogenase (quinone), mitochondrial (Homo sapiens, UniProt Q02127); conditions: dose 100.0 nM, time 30.0 min
[2] = system: Mus musculus; assay: Toxicity in NOD-SCID mouse xenografted with human Raji cells assessed as change in AST level at 40 mg/kg, po administered for 25 days; format: organism-based; conditions: in vivo, 600 h, time 25 day
[3] = Drug distribution in NOD-SCID mouse kidney at 40 mg/kg, po administered for 25 days by LC-MS analysis; format: ADME, organism-based; conditions: in vivo, 600 h, time 25 day
[4] = system: SU-DHL-6; assay: Antiproliferative activity against human SU-DHL-6 cells assessed as cell growth inhibition incubated for 96 hrs by MTT assay; format: functional, cell-based; conditions: SU-DHL-6, 96 h
[5] = system: Raji; assay: Antiproliferative activity against human Raji cells assessed as cell growth inhibition at 0.06 uM preincubated with uridine for 24 hrs followed by compound addition and measured after 72 hrs by MTT assay; format: functional; parameters: scale not given: the % may be the effect or the level left
[6] = Clearance in Sprague-Dawley rat at 15 mg/kg, po measured after 48 hrs by LC-MS analysis; format: ADME, organism-based; conditions: in vivo
[7] = Plasma protein binding in rat at 0.1 uM incubated for 5 hrs by LC-MS analysis; format: ADME, cell-free; conditions: read-out: PPB (converted)
[8] = Tmax in Sprague-Dawley rat at 15 mg/kg, po measured after 48 hrs by LC-MS analysis; format: ADME, organism-based; conditions: in vivo
[9] = Microsomal stability in human liver microsomes assessed as half life at 1 uM measured upto 120 mins in presence of NADPH by LC-MS analysis; format: ADME, Microsome
[10] = system: Raji; assay: Antitumor activity against human Raji cells xenografted in NOD-SCID mouse assessed as tumor growth inhibition at 30 mg/kg, po administered for 25 days; format: functional; conditions: 600 h, time 25 day, read-out: TGI
[11] = Acute toxicity in BALB/c mouse assessed as effect on heart at 400 mg/kg, po measured on day 14 by H and E staining based assay; format: organism-based; conditions: in vivo, 336 h, time 14 day
[12] = system: Raji; assay: Antiproliferative activity against human Raji cells assessed as cell growth inhibition at 0.2 uM incubated for 96 hrs by MTT assay; format: functional; parameters: scale not given: the % may be the effect or the level left
[13] = system: Raji; assay: Induction of cell cycle arrest in human Raji cells assessed as accumulation of cells at S phase at 0.5 uM after 24 hrs by propidium iodide staining based flow cytometric analysis (reference value: 45.7%); format: functional
[14] = system: L02; assay: cells; format: ADME, cell-based; conditions: Homo sapiens, L02, 96 h
Description: Cytotoxicity against human L02 cells assessed as cell growth inhibition incubated for 96 hrs by MTT assay

[15] = Cmax in Sprague-Dawley rat at 15 mg/kg, po measured after 48 hrs by LC-MS analysis; format: ADME, organism-based; parameters: dose 15 mg/kg, time 48 hrs, route po; conditions: in vivo
[16] = system: HL-60; assay: Antiproliferative activity against human HL-60 cells assessed as cell growth inhibition incubated for 96 hrs by MTT assay; format: functional, cell-based; conditions: HL-60, 96 h
[17] = system: Mus musculus; assay: Toxicity in NOD-SCID mouse xenografted with human Raji cells assessed as change in uric acid level at 40 mg/kg, po administered for 25 days; format: organism-based; conditions: in vivo, 600 h, time 25 day
[18] = Drug distribution in NOD-SCID mouse tumor at 40 mg/kg, po administered for 25 days by LC-MS analysis; format: ADME, organism-based, Neoplasm; conditions: in vivo, 600 h, time 25 day
[19] = Acute toxicity in BALB/c mouse assessed effect on body weight at 400 mg/kg, po; format: organism-based; conditions: in vivo
[20] = Plasma protein binding in rat at 10 uM incubated for 5 hrs by LC-MS analysis; format: ADME, cell-free; conditions: read-out: PPB (converted)
[21] = system: Raji; assay: Antiproliferative activity against human Raji cells assessed as cell growth inhibition at 0.1 uM incubated for 96 hrs by MTT assay; format: functional; parameters: scale not given: the % may be the effect or the level left
[22] = system: HEL; assay: Antiproliferative activity against human HEL cells assessed as cell growth inhibition incubated for 96 hrs by MTT assay; format: functional, cell-based
[23] = system: Daudi; assay: Antiproliferative activity against human Daudi cells assessed as cell growth inhibition incubated for 96 hrs by MTT assay; format: functional, cell-based
[24] = Microsomal stability in rat liver microsomes assessed as half life at 1 uM measured upto 120 mins in presence of NADPH by LC-MS analysis; format: ADME, Microsome
[25] = system: Raji; assay: Antiproliferative activity against human Raji cells assessed as cell growth inhibition at 0.1 uM preincubated with uridine for 24 hrs followed by compound addition and measured after 72 hrs by MTT assay; format: functional; parameters: scale not given: the % may be the effect or the level left
[26] = Microsomal stability in mouse liver microsomes assessed as half life at 1 uM measured upto 120 mins in presence of NADPH by LC-MS analysis; format: ADME, Microsome
[27] = target: T1, Dihydroorotate dehydrogenase (quinone), mitochondrial
Description: Inhibition of human DHODH using dihydroorotate substrate preincubated for 30 mins followed by substrate addition by DCIP based microplate reader analysis

[28] = system: Raji; assay: Antitumor activity against human Raji cells xenografted in NOD-SCID mouse assessed as tumor growth inhibition at 15 mg/kg, po administered for 25 days; format: functional; conditions: 600 h, time 25 day, read-out: TGI
[29] = Plasma protein binding in rat at 1 uM incubated for 5 hrs by LC-MS analysis; format: ADME, cell-free; conditions: read-out: PPB (converted)
[30] = Acute toxicity in BALB/c mouse assessed as effect on spleen at 400 mg/kg, po measured on day 14 by H and E staining based assay; format: organism-based; conditions: in vivo, 336 h, time 14 day
[31] = system: Mus musculus; assay: Toxicity in NOD-SCID mouse xenografted with human Raji cells assessed as change in UREAL at 40 mg/kg, po administered for 25 days; format: organism-based; conditions: in vivo, 600 h, time 25 day
[32] = system: SUD4; assay: Antiproliferative activity against human SU-DHL-4 cells assessed as cell growth inhibition incubated for 96 hrs by MTT assay; format: functional, cell-based; conditions: SU-DHL-4, 96 h
[33] = system: Raji; assay: Antitumor activity against human Raji cells xenografted in NOD-SCID mouse assessed as tumor growth inhibition at 40 mg/kg, po administered for 25 days; format: functional; conditions: 600 h, time 25 day, read-out: TGI
[34] = Drug distribution in NOD-SCID mouse liver at 40 mg/kg, po administered for 25 days by LC-MS analysis; format: ADME, organism-based; conditions: in vivo, 600 h, time 25 day
[35] = Drug distribution in NOD-SCID mouse lung at 40 mg/kg, po administered for 25 days by LC-MS analysis; format: ADME, organism-based; conditions: in vivo, 600 h, time 25 day
[36] = system: Raji; assay: Induction of cell cycle arrest in human Raji cells assessed as accumulation of cells at S phase at 0.125 uM after 24 hrs by propidium iodide staining based flow cytometric analysis (reference value: 45.7%); format: functional
[37] = Half life in Sprague-Dawley rat at 15 mg/kg, po measured after 48 hrs by LC-MS analysis; format: ADME, organism-based; conditions: in vivo
[38] = Clearance in Sprague-Dawley rat at 5 mg/kg, iv measured after 48 hrs by LC-MS analysis; format: ADME, organism-based; conditions: in vivo, iv, 5 mg/kg, 48 h
[39] = system: THP-1; assay: Antiproliferative activity against human THP-1 cells assessed as cell growth inhibition incubated for 96 hrs by MTT assay; format: functional, cell-based; conditions: THP-1, 96 h
[40] = Oral bioavailability in Sprague-Dawley rat at 15 mg/kg measured after 48 hrs by LC-MS analysis; format: ADME, organism-based; conditions: in vivo
[41] = system: Mus musculus; assay: Toxicity in NOD-SCID mouse xenografted with human Raji cells assessed as mortality at 40 mg/kg, po administered for 25 days; format: organism-based; conditions: in vivo, 600 h, time 25 day
[42] = Acute toxicity in BALB/c mouse assessed effect on feeding at 400 mg/kg, po; format: organism-based; conditions: in vivo
[43] = system: Raji; assay: Induction of cell cycle arrest in human Raji cells assessed as accumulation of cells at S phase at 0.25 uM after 24 hrs by propidium iodide staining based flow cytometric analysis (reference value: 45.7%); format: functional

T1 sequence (Q02127 whole entry): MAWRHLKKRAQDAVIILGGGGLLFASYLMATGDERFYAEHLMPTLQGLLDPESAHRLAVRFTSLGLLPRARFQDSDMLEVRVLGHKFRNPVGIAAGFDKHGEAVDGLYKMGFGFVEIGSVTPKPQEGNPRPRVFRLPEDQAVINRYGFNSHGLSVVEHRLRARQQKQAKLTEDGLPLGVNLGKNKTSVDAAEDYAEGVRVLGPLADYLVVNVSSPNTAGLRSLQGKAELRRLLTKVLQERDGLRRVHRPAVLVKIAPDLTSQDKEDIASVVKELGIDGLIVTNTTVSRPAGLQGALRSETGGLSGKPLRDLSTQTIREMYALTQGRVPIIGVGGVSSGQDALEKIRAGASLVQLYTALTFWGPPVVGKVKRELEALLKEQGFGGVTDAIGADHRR

Structure (SMILES): C/C(O)=C(\C#N)C(=O)Nc1cc(O[C@@H](C)C(F)(F)F)c(C(=O)Nc2c(F)cccc2F)cc1F
- inhibition [1]: 88.9%
- Activity [2]: Non-Toxic
- Drug uptake [3]: Active
- IC50 [4]: 20 nM
- Activity [5]: 3.3%
- CL/F [6]: 10 mL/min/kg
- fraction unbound at 5 h, 0.1 µM [7]: 0.099
- Tmax [8]: 18 h
- half-life at 1 µM [9]: 23.1 h
- inhibition in vivo at 30 mg/kg [10]: 81.4%
- Activity [11]: Non-Toxic
- Activity [12]: 58.7%
- Activity [13]: 86.9%
- IC50 [14]: 518 nM
- Cmax [15]: 1270 ng/mL
- IC50 [16]: 20 nM
- Activity [17]: Non-Toxic
- Drug uptake [18]: Active
- Activity [19]: Non-Toxic
- fraction unbound at 5 h, 10 µM [20]: 0.007
- Activity [21]: 43.1%
- IC50 [22]: 20 nM
- IC50 [23]: 20 nM
- half-life at 1 µM [24]: 1.43 h
- Activity [25]: 6.2%
- half-life at 1 µM [26]: 8.25 h
- IC50 [27]: 16 nM
- inhibition in vivo at 15 mg/kg [28]: 72.2%
- fraction unbound at 5 h, 1 µM [29]: 0.014
- Activity [30]: Non-Toxic
- Activity [31]: Non-Toxic
- IC50 [32]: 20 nM
- inhibition in vivo at 40 mg/kg [33]: 83.6%
- Drug uptake [34]: Active
- Drug uptake [35]: Active
- Activity [36]: 64.4%
- half-life [37]: 10.1 h
- CL [38]: 10 mL/min/kg
- IC50 [39]: 20 nM
- bioavailability [40]: 31.1%
- Activity [41]: Non-Toxic
- Activity [42]: Non-Toxic
- Activity [43]: 70.3%
